Measured values taken from the NIST ThermoML archive (doi:10.1007/s10765-012-1261-6).
Several values for one entry are separate records, joined by “and”; a condition that tells them apart may be missing. Identical values can stand only once.

Settings: Closed cell (Static) method

O [water]
Settings	vapor or sublimation pressure
249.29 K, Crystal	0.07045 kPa
249.35 K, Crystal	0.07242 kPa
250.11 K, Crystal	0.08146 kPa
252.96 K, Crystal	0.09665 kPa
253.02 K, Crystal	0.1036 kPa and 0.1016 kPa
253.59 K, Crystal	0.1049 kPa
257.86 K, Crystal	0.1607 kPa
258.04 K, Crystal	0.1642 kPa and 0.1567 kPa
258.05 K, Crystal	0.165 kPa
262.84 K, Crystal	0.2552 kPa
262.98 K, Crystal	0.2629 kPa and 0.2541 kPa
263 K, Crystal	0.2517 kPa
267.85 K, Crystal	0.4157 kPa
267.91 K, Crystal	0.4036 kPa
267.93 K, Crystal	0.392 kPa
267.99 K, Crystal	0.423 kPa
272.87 K, Liquid	0.6049 kPa
272.98 K, Liquid	0.6038 kPa
273.02 K, Liquid	0.6135 kPa
277.94 K, Liquid	0.8666 kPa
277.95 K, Liquid	0.8493 kPa
277.97 K, Liquid	0.8679 kPa
278.01 K, Liquid	0.8712 kPa
278.07 K, Liquid	0.8686 kPa
282.91 K, Liquid	1.211 kPa
282.94 K, Liquid	1.215 kPa
282.95 K, Liquid	1.197 kPa
283.03 K, Liquid	1.224 kPa
288 K, Liquid	1.687 kPa
292.84 K, Liquid	2.295 kPa
293.03 K, Liquid	2.307 kPa
293.1 K, Liquid	2.337 kPa
302.8 K, Liquid	4.162 kPa
303.07 K, Liquid	4.214 kPa and 4.238 kPa
303.1 K, Liquid	4.235 kPa
312.8 K, Liquid	7.248 kPa
313.11 K, Liquid	7.367 kPa
313.12 K, Liquid	7.372 kPa
313.16 K, Liquid	7.386 kPa
317 K, Liquid	9.084 kPa
322.82 K, Liquid	12.15 kPa
323.13 K, Liquid	12.33 kPa
323.14 K, Liquid	12.33 kPa
323.19 K, Liquid	12.34 kPa
328.15 K, Liquid	15.75 kPa
332.83 K, Liquid	19.63 kPa
333.18 K, Liquid	19.94 kPa and 19.95 kPa
333.24 K, Liquid	19.97 kPa
338.19 K, Liquid	25.06 kPa
342.81 K, Liquid	30.69 kPa
343.21 K, Liquid	31.24 kPa
343.22 K, Liquid	31.24 kPa
343.28 K, Liquid	31.27 kPa
348.23 K, Liquid	38.65 kPa
352.81 K, Liquid	46.65 kPa
353.23 K, Liquid	47.47 kPa
353.24 K, Liquid	47.46 kPa
353.31 K, Liquid	47.53 kPa
358.25 K, Liquid	57.93 kPa
362.79 K, Liquid	68.98 kPa
363.24 K, Liquid	70.36 kPa
363.26 K, Liquid	70.26 kPa
363.33 K, Liquid	70.34 kPa
368.27 K, Liquid	84.67 kPa
373.26 K, Liquid	101.68 kPa
373.28 K, Liquid	101.4 kPa
373.37 K, Liquid	102.01 kPa
